One series has as its target KV7.2/3 channel (Homo sapiens, UniProt O43525+O43526). In words: KV7.2/3 channel opening assay (thallium-sensitive fluorescence). The series is classed as cell-based. The conditions noted are these: for EC50 / efficacy: HEK293 cells overexpressing KV7.2/3; for KV7.2/3 channel opening activity (in words): inactive = no channel opening activity detected up to a concentration of 10 μM; for efficacy: relative to maximum signal of flupirtine (=100%). As for the experimental part: To evaluate the biological activity, the synthesized analogues were tested on HEK293 cells overexpressing the KV7.2/3 channel. The measurement was carried out in a fluorescence-based assay in which a thallium-sensitive dye generated the fluorescence signal. Due to its similarity to potassium, thallium can also pass through KV7 channels. The intensity of the fluorescence signal correlates with the amount of intracellular thallium and thus with the ability of the compounds to open KV7 channels. To determine the potency, the fluorescence intensity was measured as a function of the compound concentration. The efficacy was determined relative to the maximum fluorescence signal induced by flupirtine. For a summary of the activity data, see Table 2.
The cell culture of the KV7.2/3 transfected HEK293 cells (HEK293 KCNQ2/3 cells from SB Drug Discovery, Glasgow, UK) used for the assay and the processing of the obtained data were performed as described in earlier work.[27],[29] Briefly, 60,000 cells/well were seeded into 96-well microtiter plates for fluorescence-based assays (4titude Vision Plate Black 96-Well microtiter plates from ThermoScientic) and incubated for 24 h. After incubation, the medium was changed to 200 μL/well loading buffer containing 5 mmol/L probenecid and incubated for 1 h at room temperature. Subsequently, the test compounds dissolved in DMSO were added to the wells to the desired concentrations and further incubated for 30 min. As a control, the loading buffer with a DMSO concentration corresponding to the substance samples (1% (V/V)) was used. Fluorescence measurements were performed on the Infinite F200 Pro plate reader (Tecan) set at […]/emission wavelengths of 485 and 535 nm, respectively. After measuring the background fluorescence (baseline) for 20 s, a stimulus buffer (25 mmol/L K^+, 15 mmol/L Tl^+) was added just before the fluorescence of each well was measured.
The calculations to obtain dose–response curves were performed in the same manner as in previous investigations.[27],[29] Briefly, the fluorescence intensity was normalized with the baseline signal (F/F0) at each time of signal acquisition. To obtain the corrected negative control, a value of 1 was subtracted from the normalized value of the negative control. Subsequently, the value of the corrected negative control was subtracted from the maximum (corr. F/F0) value of a compound in a defined concentration (corr. ΔF/F0) and then plotted against the logarithmic concentration. The EC50 value was calculated as relative values with GraphPad Prism 6 (La Jolla, CA, USA), that is, the inflection points of the sigmoidal curves. The Emax value, the maximum response, indicates the intrinsic activity of a compound. This value was determined relative to flupirtine (1), where the maximum corr. ΔF/F0 value of flupirtine (1) was defined as 100%. The EC50 and Emax value of a compound is the mean of at least three independent experiments ± standard deviation (SD).

Series [1] can be described thus: log D7.4 estimation by HPLC-based method. The series is classed as physicochemical. The following applies: HPLC, Phenomenex Luna 5 μm Phenyl-Hexyl column. As for the experimental part:
The log D7.4 values were estimated using a common HPLC-based method in accordance with guideline OPPTS 830.7570 of the United States Environmental Protection Agency (EPA). The HPLC measurements were performed with a Phenomenex Luna 5 μm Phenyl-Hexyl 100 Å column (150 × 4.6 mm). […]. Uracil was used to measure the unretained peak time. To obtain a calibration function, the logarithm of the capacity factors for the reference substances was then plotted against the corresponding log P values taken from the mentioned guideline, which are equivalent to the log D7.4 values for non-ionizable compounds like the reference substances used for calibration. With this calibration function, it was possible to estimate the log D7.4 value from the corresponding retention time for each compound to be tested. For the measurement, 2 mg of the reference substances was each dissolved in 1 mL of methanol. A reference mixture was then obtained by combining 50 μL of each reference solution. The reference mixture was measured before and after the substances to be tested. The mean value from both measurements was used for the calibration line. The substances to be tested were injected as a solution in methanol (2 mg/mL), and the retention time was determined as the mean value from two measurements.

A further series deals with HEP-G2 cells. In words: MTT cell viability assay, HEP-G2 cells. The following applies: for LD50: 50% reduction of viability. From the text: (§1) In addition to the activity, basic toxicological properties of the newly synthesized compounds were also investigated by using the 3-(4,5-dimethylthiazol-2-yl)-2,5-diphenyltetrazolium bromide (MTT) cell viability assay on mouse TAMH and human HEP-G2 hepatic cell lines (see Table 2). Both cell lines are established for the evaluation of hepatotoxicity.[42],[43]
(§2) The culturing of the mouse liver TAMH and human liver cancer HEP-G2 cell lines and the MTT assay used to evaluate cell viability were carried out as previously described elsewhere in detail.[27],[29] […] The medium in the wells was then replaced with the medium containing the compounds. Control wells contained an equivalent number of cells and 1% (v/v) DMSO. Wells without cells were used to determine the background optical density (OD) and were treated as the control wells. After 24 or 48 h of incubation with the compound, the respective medium was replaced with a fresh medium supplemented with 10% (v/v) of a 2.5 mg/mL solution of MTT. The plates were incubated for 4 h. Then, the culture medium was carefully aspirated off and 50 μL of DMSO was added to each well to dissolve the formazan crystals. The ODs of each well were measured at λ = 570 nm with a SpectraMax 190 microplate reader.
(§3) The calculated T/Ccorr. values were plotted against the log(concentration). The LD50 and LD25 values were determined by using GraphPad Prism 6. […] The values are given as the mean with SD of at least three independent experiments.
For orientation: Tetrazolium dyes change colour on reduction, which living cells bring about.

A further series concerns TAMH cells. The series can be described thus: MTT cell viability assay, TAMH cells. The conditions noted are these: for LD50: 50% reduction of viability.
Text: as §1, §2, §3

The mark [2] stands for this setting: pH 7.4, HPLC, calibration C, read-out: logD7.4.
Setting [3] is: pH 7.4, HPLC, calibration D, read-out: logD7.4.
Where [4] appears, read: pH 7.4, HPLC, mean of two calibrations, read-out: logD7.4 (mean).
The mark [5] stands for this setting: pH 7.4, estimated by HPLC-based method, pH 7.4, read-out: log D7.4.
[6] abbreviates: HEP-G2 cells, MTT assay, 24 h exposure, 25% reduction of viability.
Where [7] appears, read: HEP-G2 cells, MTT assay, 24 h exposure.
Where [8] appears, read: TAMH cells, MTT assay, 24 h exposure, 25% reduction of viability.
The mark [9] stands for this setting: TAMH cells, MTT assay, 24 h exposure.
Setting [10] is: concentration for half-maximal channel opening, mean ± SD, ≥3 determinations.
Where [11] appears, read: pH 7.4, HPLC, calibration A1, read-out: logD7.4.
[12] abbreviates: pH 7.4, HPLC, calibration B1, read-out: logD7.4.

The structures appear in SMILES notation. Several values for one entry are separate records, joined by “and”; a condition that tells them apart may be missing. Identical values can stand only once. Like-named read-outs stand apart in the source and are kept apart here.

Chain of KV7.2/3 channel (O43526 whole entry): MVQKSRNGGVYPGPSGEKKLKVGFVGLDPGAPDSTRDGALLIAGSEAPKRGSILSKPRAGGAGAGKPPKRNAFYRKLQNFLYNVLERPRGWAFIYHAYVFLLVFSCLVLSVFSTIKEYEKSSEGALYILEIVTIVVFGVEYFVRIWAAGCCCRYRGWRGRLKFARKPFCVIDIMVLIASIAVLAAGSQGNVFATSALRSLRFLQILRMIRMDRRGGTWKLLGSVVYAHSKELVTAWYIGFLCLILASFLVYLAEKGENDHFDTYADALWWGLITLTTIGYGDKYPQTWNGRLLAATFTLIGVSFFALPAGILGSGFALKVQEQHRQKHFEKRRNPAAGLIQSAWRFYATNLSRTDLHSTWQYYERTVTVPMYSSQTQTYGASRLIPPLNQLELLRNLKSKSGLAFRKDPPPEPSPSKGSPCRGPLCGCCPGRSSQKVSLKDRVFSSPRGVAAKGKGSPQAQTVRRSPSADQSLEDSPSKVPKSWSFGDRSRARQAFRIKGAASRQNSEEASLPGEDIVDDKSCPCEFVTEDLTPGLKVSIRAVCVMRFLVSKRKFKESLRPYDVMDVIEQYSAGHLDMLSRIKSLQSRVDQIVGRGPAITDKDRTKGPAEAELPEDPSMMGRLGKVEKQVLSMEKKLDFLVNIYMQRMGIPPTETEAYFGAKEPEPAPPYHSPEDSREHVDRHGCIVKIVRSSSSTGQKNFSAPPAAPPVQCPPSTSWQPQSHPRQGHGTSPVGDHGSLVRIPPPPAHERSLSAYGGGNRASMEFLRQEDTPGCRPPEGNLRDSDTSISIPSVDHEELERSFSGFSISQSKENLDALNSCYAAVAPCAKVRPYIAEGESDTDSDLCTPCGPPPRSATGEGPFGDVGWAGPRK
Chain of KV7.2/3 channel (O43525 whole entry): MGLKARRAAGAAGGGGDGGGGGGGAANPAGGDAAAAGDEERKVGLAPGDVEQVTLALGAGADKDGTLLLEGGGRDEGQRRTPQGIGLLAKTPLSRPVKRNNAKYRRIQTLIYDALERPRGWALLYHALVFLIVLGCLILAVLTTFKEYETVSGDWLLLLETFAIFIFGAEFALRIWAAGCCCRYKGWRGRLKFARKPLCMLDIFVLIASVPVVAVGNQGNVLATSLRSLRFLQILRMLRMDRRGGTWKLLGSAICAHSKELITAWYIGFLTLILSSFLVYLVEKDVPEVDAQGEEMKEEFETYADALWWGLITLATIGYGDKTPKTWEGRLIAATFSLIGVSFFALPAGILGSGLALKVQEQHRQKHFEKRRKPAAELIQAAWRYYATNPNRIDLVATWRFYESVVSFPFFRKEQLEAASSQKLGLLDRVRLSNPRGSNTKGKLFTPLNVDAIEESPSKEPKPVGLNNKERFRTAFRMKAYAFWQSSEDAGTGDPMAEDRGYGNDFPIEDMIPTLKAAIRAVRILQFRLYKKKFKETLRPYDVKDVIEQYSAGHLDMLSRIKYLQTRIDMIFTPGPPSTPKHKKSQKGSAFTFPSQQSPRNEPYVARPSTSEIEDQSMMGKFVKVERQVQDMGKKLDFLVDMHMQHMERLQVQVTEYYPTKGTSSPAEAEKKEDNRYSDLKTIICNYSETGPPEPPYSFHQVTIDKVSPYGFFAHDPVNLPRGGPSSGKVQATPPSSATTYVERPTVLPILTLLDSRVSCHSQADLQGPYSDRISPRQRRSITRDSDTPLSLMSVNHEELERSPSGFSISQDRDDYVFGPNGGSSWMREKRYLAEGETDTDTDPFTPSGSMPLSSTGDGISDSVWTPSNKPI

As for `COc1cc(NCc2ccc(F)cc2)ccc1C(=O)NCC(C)C` [28a, 4-[(4-Fluorobenzyl)amino]-N-isobutyl-2-methoxybenzamide], the EC50 on KV7.2/3 channel (footnote e) was > 10 µM. On KV7.2/3 channel, the “KV7.2/3 channel opening activity (in words)” value was “inactive”. The chromatographic logD in series [1] (setting [2]) was 3.79; in series [1] (setting [3]), 3.79; in series [1] (setting [4]), 3.8; in series [1] (setting [5]) it was 3.8. Besides, the figures for the LD25 in the series with HEP-G2 cells (setting [6]) and in the series on TAMH cells (setting [8]) were 31 ± 13 µM and 43 ± 27 µM, respectively. In addition, the values for the LD50 with HEP-G2 cells (setting [7]) and with TAMH cells (setting [9]) were 42 ± 7 µM and >63 µM, respectively.

For the compound `COc1cc(NCc2ccc(F)cc2)ccc1C(=O)NCc1ccc(F)cc1` [28b, N-(4-Fluorobenzyl)-4-[(4-fluorobenzyl)amino]-2-methoxybenzamide], on KV7.2/3 channel (footnote e), the EC50 is > 10 µM. On KV7.2/3 channel, the “KV7.2/3 channel opening activity (in words)” value was “inactive”. The chromatographic logD is 4.28 in series [1] (setting [2]), 4.29 in series [1] (setting [3]), 4.3 in series [1] (setting [4]) and 4.3 in series [1] (setting [5]). Also, the LD25 in the series with HEP-G2 cells (setting [6]) and with TAMH cells (setting [8]) was >8 µM throughout. Besides, the LD50 with HEP-G2 cells (setting [7]) and in the series on TAMH cells (setting [9]) was >8 µM each time.

On to `CCCCNC(=O)c1c(C)cc(NCc2ccc(F)cc2)nc1OC` [36a, N-Butyl-6-[(4-fluorobenzyl)amino]-2-methoxy-4-methylnicotinamide], for which, at KV7.2/3 channel (36a compared with 36b), the “loss of potency (factor)” value amounted to 11. Besides, the concentration for a half-maximal effect (EC50) at KV7.2/3 channel (setting [10]) stood at 3.51 ± 0.724 µM. In addition, at KV7.2/3 channel, the efficacy is 65% and 65 ± 9%. Moreover, the chromatographic logD was 3.7 in series [1] (setting [11]), 3.66 in series [1] (setting [12]), 3.7 in series [1] (setting [4]) and 3.7 in series [1] (setting [5]). The LD25 in the series with HEP-G2 cells (setting [6]) was found to be 24 ± 1 µM; in the series with TAMH cells (setting [8]) it was 17 ± 1 µM. Also, the LD50 in the series on HEP-G2 cells (setting [7]) and in the series on TAMH cells (setting [9]) was >63 µM throughout.

`Cc1cc(N2CCOCC2)nc(N2CCOCC2)c1CNC(=O)c1ccc(F)cc1` [55a, 4-Fluoro-N-[(4-methyl-2,6-dimorpholinopyridin-3-yl)methyl]benzamide]: the EC50 at KV7.2/3 channel (footnote e) was > 10 µM. Further, the “KV7.2/3 channel opening activity (in words)” value on KV7.2/3 channel was “inactive”. Also, the chromatographic logD was 3.45 in series [1] (setting [11]), 3.46 in series [1] (setting [12]), 3.5 in series [1] (setting [4]) and 3.5 in series [1] (setting [5]). In addition, the LD25 is 22 ± 6 µM in the series on HEP-G2 cells (setting [6]) and 22 ± 7 µM with TAMH cells (setting [8]). Also, the LD50 in the series on HEP-G2 cells (setting [7]) and with TAMH cells (setting [9]) was >31 µM each time.

As for `Cc1cc(N2CCOCC2)nc(N2CCOCC2)c1CNC(=O)Cc1cc(F)cc(F)c1` [55b, 2-(3,5-Difluorophenyl)-N-[(4-methyl-2,6-dimorpholinopyridin-3-yl)methyl]acetamide], the EC50 on KV7.2/3 channel (footnote e) was > 10 µM. The “KV7.2/3 channel opening activity (in words)” value on KV7.2/3 channel is “inactive”. Further, the chromatographic logD in series [1] (setting [11]) is 3.52; in series [1] (setting [12]), 3.53; in series [1] (setting [4]), 3.5; in series [1] (setting [5]) it was 3.5. In addition, the results for the LD25 in the series with HEP-G2 cells (setting [6]) and with TAMH cells (setting [8]) were 20 ± 7 µM and 24 ± 5 µM, respectively. Also, the LD50 in the series on HEP-G2 cells (setting [7]) and with TAMH cells (setting [9]) was >250 µM in each case.

Consider `CCOC(=O)Nc1ccc(NCc2ccc(F)cc2)nc1N` [compound 1, flupirtine, reference compound], for which the EC50 at KV7.2/3 channel (setting [10]) is 1.84 ± 0.844 µM. The compound further had an efficacy at KV7.2/3 channel of 100%. In addition, the chromatographic logD was 2.1 in series [1] (setting [11]), 2.06 in series [1] (setting [12]), 2.1 in series [1] (setting [4]) and 2.1 in series [1] (setting [5]). In addition, the LD50 was 547 ± 111 µM in the series on HEP-G2 cells (setting [7]); ~500 µM with HEP-G2 cells (HEP-G2 cells, MTT assay, 24 h exposure, listed as flupirtine); 487 ± 51 µM in the series with TAMH cells (setting [9]); ~500 µM with TAMH cells (TAMH cells, MTT assay, 24 h exposure, listed as flupirtine). Also, the LD25 in the series on HEP-G2 cells (human, 24 h) came out at 74 ± 40 µM; in the series with TAMH cells (mouse, 24 h), 103 ± 47 µM.

With `CC(C)CNC(=O)c1ccc(NCc2ccc(F)cc2)cc1N` [compound 17, 2-Amino-4-[(4-fluorobenzyl)amino]-N-isobutylbenzamide], at KV7.2/3 channel (footnote e), the EC50 was > 10 µM. Besides, the “KV7.2/3 channel opening activity (in words)” value at KV7.2/3 channel was “inactive”. Also, the chromatographic logD in series [1] (setting [2]) was 2.75; in series [1] (setting [3]) it was 2.75; in series [1] (setting [4]) it was 2.7; in series [1] (setting [5]), 2.7. Also, the LD25 in the series with HEP-G2 cells (setting [6]) was 56 ± 40 µM; with TAMH cells (setting [8]), >125 µM. The LD50 in the series on HEP-G2 cells (setting [7]) and in the series on TAMH cells (setting [9]) was >125 µM throughout.

In the case of `CCCCNC(=O)c1ccc(NCc2ccc(F)cc2)nc1N` [compound 21, 2-Amino-N-butyl-6-[(4-fluorobenzyl)amino]nicotinamide], the EC50 at KV7.2/3 channel (footnote e) is > 10 µM. Moreover, the “KV7.2/3 channel opening activity (in words)” value on KV7.2/3 channel was “inactive”. The chromatographic logD in series [1] (setting [11]) was 2.88; in series [1] (setting [12]), 2.86; in series [1] (setting [4]), 2.9; in series [1] (setting [5]), 2.9. Besides, the LD25 in the series with HEP-G2 cells (setting [6]) amounted to 148 ± 11 µM; in the series with TAMH cells (setting [8]), 145 ± 7 µM. Also, the LD50 in the series with HEP-G2 cells (setting [7]) turned out to be 149 ± 11 µM; in the series with TAMH cells (setting [9]), 149 ± 7 µM.

As a reminder, the EC50 is the concentration giving half of the maximal effect. A low value points to greater potency.

These data come from paper PMC8908504 (ACS Omega, 2022).
